Results published in PubChem BioAssay (NCI).
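Compound exposure: 48 hours, 5 concentrations, 96-well plates. The concentration for 50% growth inhibition is given as GI50. TGI marks complete inhibition of growth.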

Assays:
Test in all cases: NCI-60 cell line screen, 48 h
[1] = test system: MOLT-4 leukemia
[2] = test system: NCI-H522 lung
[3] = test system: HL-60(TB) leukemia
[4] = test system: SK-MEL-2 melanoma
[5] = test system: SF-539 CNS
[6] = test system: UACC-62 melanoma
[7] = test system: SW-620 colon
[8] = test system: NCI/ADR-RES ovarian
[9] = test system: IGROV1 ovarian
[10] = test system: KM12 colon
[11] = test system: 786-0 renal
[12] = test system: SK-OV-3 ovarian
[13] = test system: UO-31 renal
[14] = test system: A498 renal
[15] = test system: MCF7 breast
[16] = test system: K-562 leukemia
[17] = test system: LOX IMVI melanoma
[18] = test system: M14 melanoma
[19] = test system: HCT-116 colon
[20] = test system: PC-3 prostate
[21] = test system: A549 NSCLC
[22] = test system: U251 CNS
[23] = test system: RPMI-8226 leukemia
[24] = test system: BT-549 breast
[25] = test system: ACHN renal
[26] = test system: OVCAR-5 ovarian
[27] = test system: OVCAR-3 ovarian
[28] = test system: MDA-MB-435
[29] = test system: UACC-257 melanoma
[30] = test system: CCRF-CEM leukemia
[31] = test system: MALME-3M melanoma
[32] = test system: SK-MEL-5 melanoma
[33] = test system: SNB-75 CNS
[34] = test system: SN12C renal
[35] = test system: HCT-15 colon
[36] = test system: HCC-2998 colon
[37] = test system: OVCAR-8 ovarian
[38] = test system: HOP-62 NSCLC
[39] = test system: TK-10 renal
[40] = test system: SNB-19 CNS
[41] = test system: MDA-MB-231 breast
[42] = test system: SF-268 CNS
[43] = test system: SK-MEL-28 melanoma
[44] = test system: HOP-92 NSCLC
[45] = test system: NCI-H226 lung
[46] = test system: CAKI-1 renal
[47] = test system: EKVX NSCLC
[48] = test system: NCI-H23 lung
[49] = test system: NCI-H460 lung
[50] = test system: SF-295 CNS
[51] = test system: RXF 393 renal
[52] = test system: COLO 205 colon
[53] = test system: HS 578T breast
[54] = test system: T-47D breast
[55] = test system: HT29 colon
[56] = test system: OVCAR-4 ovarian

COc1ccc(OC)c(/C=C/C(=O)N/N=C/c2ccccc2)c1
GI50 [1]: 4.45 µM
TGI [1]: > 100 µM
GI50 [2]: 1.57 µM
TGI [2]: 41.7 µM
GI50 [3]: 2.03 µM
TGI [3]: 13.7 µM
GI50 [4]: 2.98 µM
TGI [4]: 9.32 µM
GI50 [5]: 4.42 µM
TGI [5]: 25.1 µM
GI50 [6]: 3.55 µM
TGI [6]: 75.8 µM
GI50 [7]: 1.5 µM
TGI [7]: 6.23 µM
GI50 [8]: 1.46 µM
TGI [8]: 4.29 µM
GI50 [9]: 1.51 µM
TGI [9]: > 100 µM
GI50 [10]: 0.834 µM
TGI [10]: 3.75 µM
GI50 [11]: 7 µM
TGI [11]: 72.5 µM
GI50 [12]: 12 µM
TGI [12]: > 100 µM
GI50 [13]: 5.9 µM
TGI [13]: 85.5 µM
GI50 [14]: 12 µM
TGI [14]: > 100 µM
GI50 [15]: 3.79 µM
TGI [15]: > 100 µM
GI50 [16]: 0.488 µM
TGI [16]: > 100 µM
GI50 [17]: 4.12 µM
TGI [17]: > 100 µM
GI50 [18]: 2.16 µM
TGI [18]: 6.77 µM
GI50 [19]: 2.64 µM
TGI [19]: 10.2 µM
GI50 [20]: 5.86 µM
TGI [20]: 52.1 µM
GI50 [21]: 4.29 µM
TGI [21]: > 100 µM
GI50 [22]: 3.68 µM
TGI [22]: > 100 µM
GI50 [23]: 2.99 µM
TGI [23]: 9.96 µM
GI50 [24]: 4.05 µM
TGI [24]: 90.4 µM
GI50 [25]: 9.66 µM
TGI [25]: > 100 µM
GI50 [26]: 18 µM
TGI [26]: > 100 µM
GI50 [27]: 3.15 µM
TGI [27]: > 100 µM
GI50 [28]: 0.283 µM
TGI [28]: 1.98 µM
GI50 [29]: 5.76 µM
TGI [29]: 33.6 µM
GI50 [30]: 3.97 µM
TGI [30]: > 100 µM
GI50 [31]: 2.12 µM
TGI [31]: > 100 µM
GI50 [32]: 2.95 µM
TGI [32]: 14.6 µM
GI50 [33]: 4.39 µM
TGI [33]: 37.3 µM
GI50 [34]: 4.17 µM
TGI [34]: 39.9 µM
GI50 [35]: 3.62 µM
TGI [35]: > 100 µM
GI50 [36]: 2.35 µM
TGI [36]: 21 µM
GI50 [37]: 5.44 µM
TGI [37]: 94.6 µM
GI50 [38]: 4.95 µM
TGI [38]: > 100 µM
GI50 [39]: 16.6 µM
TGI [39]: > 100 µM
GI50 [40]: 4.12 µM
TGI [40]: > 100 µM
GI50 [41]: 7.24 µM
TGI [41]: > 100 µM
GI50 [42]: 7.56 µM
TGI [42]: > 100 µM
GI50 [43]: 8.89 µM
TGI [43]: > 100 µM
GI50 [44]: 1.56 µM
TGI [44]: 13.3 µM
GI50 [45]: 30.8 µM
TGI [45]: > 100 µM
GI50 [46]: 0.443 µM
TGI [46]: 6.66 µM
GI50 [47]: 1.59 µM
TGI [47]: 59.5 µM
GI50 [48]: 5.4 µM
TGI [48]: 87 µM
GI50 [49]: 2.07 µM
TGI [49]: 5.62 µM
GI50 [50]: 1 µM
TGI [50]: 11.1 µM
GI50 [51]: 3.9 µM
TGI [51]: 26.6 µM
GI50 [52]: 4.8 µM
TGI [52]: 35.1 µM
GI50 [53]: 9.07 µM
TGI [53]: > 100 µM
GI50 [54]: 4.86 µM
TGI [54]: > 100 µM
GI50 [55]: 2.1 µM
TGI [55]: > 100 µM
GI50 [56]: 14.3 µM
TGI [56]: > 100 µM
